Data: the METLIN SMRT retention time set (Domingo-Almenara et al. 2019)

Assay: gradient 5% acetonitrile 3 min, to 50% in 2 min, to 85% in 15 min, held 3 min, 100 µL/min
Settings: column: Zorbax Extend-C18 2.1 x 50 mm; eluents: water / acetonitrile, 0.1% formic acid
In short: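 Each retention time is based on an adduct peak selected computationally and verified by manual inspection. Measurements used HPLC–quadrupole time-of-flight mass spectrometry in positive and negative ionization mode on mixtures of ~100 pure standards. Chromatography ran on a Zorbax Extend-C18 column (2.1 × 50 mm, 1.8 μm) at 100 μL/min with water and acetonitrile, each containing 0.1% formic acid, and dead and dwell volumes of 40 μL and 900 μL.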

Row | RP-LC retention time | Compound
1 | 710 s | COc1cccc(-n2c(N3CCCC(C(=O)NC4CC4)C3)nc3ccsc3c2=O)c1 (stereo not drawn)
2 | 902 s | COc1ccc(Cc2nnc3sc(COc4ccc(OC)cc4)nn23)cc1
3 | 595 s | CCCC1c2nccn2CCCN1C(=O)CCc1c(C)noc1C (stereo not drawn)
4 | 1120 s | Cc1ccc(-c2nc(NC(=O)c3cc(C)on3)sc2C)c(C)c1
5 | 672 s | COc1ccccc1-c1nc2cnccn2c1NCCC(=O)Nc1ccc2c(c1)OCCO2
6 | 652 s | CN1C(=O)Cc2cc(C(=O)N3CCCCC3)ccc21
7 | 891 s | CN(CC1CCCO1)S(=O)(=O)c1ccc(C(=O)Nc2ccc3sccc3c2)cc1 (stereo not drawn)
8 | 860 s | CCOC(=O)c1c(C)[nH]c(C(=O)N2CCC(C(C)C(=O)NCc3ccc(OCC)cc3)CC2)c1C (stereo not drawn)
9 | 673 s | CCOC(=O)c1cnc2nc(C)ccc2c1Nc1ccccc1
10 | 772 s | CCc1cccc(NC(=O)Nc2cnn(-c3ncc(N(C)C)cn3)c2)c1
11 | 761 s | C#CCOCC1CCN(C(=O)Cc2noc3ccccc23)CC1
12 | 678 s | CCn1c(=O)n(CC(=O)NCCC(C)C)c(=O)c2cnc(-c3ccccc3)nc21
13 | 1150 s | COc1ccc(NC(=O)C2CCCN(c3nccnc3Sc3ccccc3)C2)cc1Cl (stereo not drawn)
14 | 1180 s | CCOc1ccc(CNC(=O)c2cc3c(=O)n(CC)c4ccccc4n3n2)cc1OC
15 | 750 s | CS(=O)(=O)N1CCC(CNC(=O)c2cc(-c3ccccc3)on2)CC1
16 | 675 s | CCN1CCN(S(=O)(=O)c2cc(-c3nc(C)cs3)n(CC(=O)N3CCCCC3)c2)CC1
17 | 718 s | O=C(Cn1nc2c3cc(Cl)ccc3ncn2c1=O)Nc1ccccc1
18 | 583 s | CSc1cccc(NC(=O)NCCNc2nc(C)cc(N(C)C)n2)c1
19 | 730 s | COc1ccc(NC(=O)C2CCN(S(=O)(=O)c3cc(C(=O)N(C)C)cs3)CC2)cc1
20 | 737 s | Cc1oc(-c2[nH]ncc2C(=O)N2CCCC2)cc1S(=O)(=O)NCc1ccc(Cl)cc1
21 | 543 s | COCCO[C@H]1C(=O)N(C2CCN(S(C)(=O)=O)CC2)[C@H]1c1ccncc1
22 | 778 s | Cc1cc(F)ccc1NC(=O)CCc1c(C)nn(-c2cc(N(C)C)ncn2)c1C

Row | RP-LC retention time | Compound
23 | 1280 s | CCOC(=O)c1cc(C2CC2)nc2c1c(=O)n(Cc1cccc(Br)c1)c(=O)n2C
24 | 819 s | O=C(Nc1ccc2c(c1)CN(C(=O)c1ccccc1)CC2)c1ccc(Br)o1
25 | 579 s | CC(C)C(=O)N1CCCn2nc(-c3cccnc3)cc2C1
26 | 1050 s | CCOC(=O)c1ccc(NC(=O)c2cnc(-c3ccc(C)cc3)nc2-c2ccncc2)cc1
27 | 770 s | O=C(CCCc1ccccc1)N1C[C@H]2CNC(=O)[C@]23CCCC[C@@H]13
28 | 909 s | CCN1C(=O)COc2ccc(-c3nc(NC(=O)C(C)C)sc3C)cc21
29 | 992 s | COc1ccc(N2CC(c3noc(-c4ccc(OC)cc4C)n3)CC2=O)cc1 (stereo not drawn)
30 | 930 s | O=C(CSC1CCc2ccccc2NC1=O)Nc1ccc(Cl)cc1Cl (stereo not drawn)
31 | 756 s | Cn1nc(C(=O)N2CCCC(C(=O)Nc3ccccc3)C2)c2c1CCN(C(=O)c1ccc(F)cc1)C2 (stereo not drawn)
32 | 628 s | CN(C)Cc1c(C(=O)NCCOc2ccc(C(=O)NO)cc2)oc2ccccc12
33 | 643 s | Cc1cc(C)c2c(N3CCCC3)nc(C(=O)NCc3cccs3)nc2n1
34 | 602 s | COCc1cc(=O)n(CC(=O)Nc2cccc(C)c2C)c(N)n1
35 | 679 s | Cc1nn(C2CCS(=O)(=O)C2)c(C)c1N1CCN(S(=O)(=O)c2cccnc2)CC1 (stereo not drawn)
36 | 959 s | COc1ccc(NC(=O)Cn2cc(-c3ccccc3C)c(N3CCOCC3)n2)c(OC)c1
37 | 641 s | COc1ccc(CNC(=O)c2[nH]c3cc(C)sc3c2CN(C)C)cc1OC
38 | 986 s | CCS(=O)(=O)N1CCCc2cc(C(=O)Nc3ccccc3Br)ccc21
39 | 902 s | COCCN(CCOC)c1ncnc2c1cnn2-c1ccc(C)cc1C
40 | 817 s | O=C(Cn1cc(-c2nnco2)c2ccccc21)NCc1cccc(Cl)c1
41 | 842 s | CCOC(=O)c1ccc(NC(=O)c2ccccc2-c2ccccc2C(=O)O)cc1
42 | 571 s | CCN(CC)CCNC(=O)C1(O)c2ccccc2NC(=O)N1c1ccc(C)c(C)c1 (stereo not drawn)
43 | 672 s | CS(=O)(=O)N[C@H]1C[C@@H]2C[C@H]1CN2C(=O)c1cccc(Cl)c1
44 | 651 s | CCSc1nccc2c1ccn2CC(=O)NCc1ccc(OC)cc1OC

Row | RP-LC retention time | Compound
45 | 679 s | CCCNC(=O)C1CCN(C(=O)CCc2c(C)[nH]c(C(=O)OCC)c2C)CC1
46 | 596 s | Cc1cc(C)n(-c2ccnc(NCCc3ccccn3)n2)n1
47 | 655 s | O=C(Nc1ccc2c(c1)OCCO2)C1CCN(C(=O)c2cc(-c3cccnc3)n[nH]2)CC1
48 | 778 s | CCOc1ccc(Nc2c(-c3nc(C)no3)cnc3nc(C)ccc23)cc1
49 | 1030 s | CCn1cc(-c2nc(C(=O)NCc3cc(F)cc(F)c3)cs2)c2cccnc21
50 | 612 s | CCOC(=O)CNC(=O)N1CCN(Cc2nc3cccnc3n2-c2cccc(F)c2)CC1
51 | 754 s | Cc1ccc(-n2nc3c(N4CCCC(C(=O)NCc5ccccc5)C4)nnc(C)c3c2C)cc1 (stereo not drawn)
52 | 721 s | COc1ccc(NC(=O)C2CCN(S(=O)(=O)c3cc(C(=O)N4CCOCC4)cs3)CC2)cc1
53 | 905 s | Cc1cccc(S(=O)(=O)N2CC3CN(C(=O)C(C)c4ccccc4)CC(C2)O3)c1 (stereo not drawn)
54 | 599 s | CCOC(=O)c1noc2ncnc(NCCCN3CCN(c4ccc(F)cc4)CC3)c12
55 | 959 s | CN(CCc1noc(-c2ccccc2)n1)C(=O)CSc1ccccc1
56 | 731 s | O=C(NCCc1ccccc1)N1CCC(c2noc(-c3ccncc3)n2)C1 (stereo not drawn)
57 | 1050 s | Cc1nc(-c2csc(S(=O)(=O)N3CCC(C(=O)N4c5ccccc5CC4C)CC3)c2)no1 (stereo not drawn)
58 | 849 s | CCOC(=O)C1=C(C)NC2=C(C(=O)C(C(=O)OC)C(C)C2)C1c1ccccc1OC (stereo not drawn)
59 | 596 s | Cc1cccc2c(C(=O)O)cc(N3CCN(C)CC3)nc12
60 | 766 s | Cc1ccc(-c2ncccc2CNS(=O)(=O)c2cccc(Cl)c2)cc1
61 | 576 s | CC(C)NC(=O)N(C1CCOCC1)C1CN(C(=O)c2ccnn2C)C1
62 | 679 s | COc1ccc(S(=O)(=O)NCc2cccnc2-c2ccc(C)cc2)cc1
63 | 643 s | O=C(CSCCc1ccccn1)Nc1c(F)c(F)c(F)c(F)c1F
64 | 746 s | O=C(COc1ccccc1)Nc1cnc(N2CCOCC2)nc1
65 | 1130 s | Cc1[nH]nc(-c2c(C)sc(C)c2S(=O)(=O)NC2CCCc3ccccc32)c1C (stereo not drawn)
66 | 738 s | CCN(CC)S(=O)(=O)c1ccc(C(=O)Nc2nc3c(s2)CCc2ccccc2-3)cc1

Row | RP-LC retention time | Compound
67 | 1050 s | Cc1ccc(C)c(N2CCN(C(=O)C3CCCN(c4ncnc5c4nc4n5CCCCC4)C3)CC2)c1 (stereo not drawn)
68 | 585 s | CC(=O)N1CCc2[nH]c3ccc(C(=O)NC4CCN(Cc5ccccc5)CC4)cc3c2C1
69 | 737 s | O=C(Cn1nc(N2CCOCC2)c2ccccc2c1=O)Nc1ccc2c(c1)OCCO2
70 | 705 s | Cc1ccc(Cl)cc1N1CCN(C(=O)c2c(C)oc3c2C2=NCCN2C=N3)CC1
71 | 696 s | CC(C)Oc1ccc(CN2CC(c3nc(-c4ccsc4)nn3C)C2)cc1
72 | 595 s | CN(C)C(CNS(=O)(=O)c1ccc(Br)s1)c1cn(C)c2ccccc12 (stereo not drawn)
73 | 814 s | CCc1noc(NC(C)=O)c1-c1ccc(C)c(S(=O)(=O)NCc2ccc3c(c2)OCO3)c1
74 | 809 s | Cn1cccc1-c1cc2n(n1)CCCN2C(=O)CCC(=O)N1CCc2ccccc2C1
75 | 942 s | COc1cc(C(=O)Nc2nnc(SCc3nnc(-c4ccccc4C)o3)s2)cc(OC)c1OC
76 | 1000 s | O=C(CSc1ccccc1)N1CCc2nc(-c3ccc(F)cc3)ncc2C1
77 | 648 s | Cc1nnc(-c2ccc3ccn(CC(=O)NCCc4ccc(S(N)(=O)=O)cc4)c3c2)o1
78 | 602 s | O=C(NC1CCCC1)N1CCCCC1c1nncn1-c1ccccc1 (stereo not drawn)
79 | 947 s | COc1ccc(C(=O)N2CCCC2c2nc(-c3cccc(C)c3)no2)cn1 (stereo not drawn)
80 | 981 s | CCc1nc(-c2csc(S(=O)(=O)N3CCC(C(=O)Nc4ccccc4F)CC3)c2)no1
81 | 1050 s | c1ccc(Sc2ncnc3ccccc23)cc1
82 | 1070 s | COc1ccc(C(=O)N2CCc3cc(-c4csc(C5CC5)n4)ccc32)cn1
83 | 786 s | N#Cc1ccc(-c2nc(-c3ccc4c(c3)nnn4CCC(=O)N3CCOCC3)no2)cc1
84 | 721 s | O=c1cc(-c2ccccc2)c2c(O)cc(O)cc2o1
85 | 583 s | Cc1ccc(-c2cn3cc(C(=O)N4CCCN(C)CC4)ccc3n2)cc1C
86 | 1040 s | COc1ccc(-c2nc(Cc3noc(-c4cccc(F)c4)n3)c(C)o2)cc1

Row | Compound | RP-LC retention time
87 | COc1ccc(S(=O)(=O)N2[C@H]3CC[C@@H]2c2cncnc2C3)cc1 | 715 s
88 | COc1ccc2c(c1)C1(CCN(S(=O)(=O)c3cc(F)ccc3C)C1)C(=O)N2C (stereo not drawn) | 997 s
